# Reference: article PMC6585941 (SLAS discovery : advancing life sciences R & D, 2018)
# Assays:
# [1] = target: T1, Recombinant human IDE (Homo sapiens, UniProt P14735); assay: Fluorescence polarization; format: biochemical
# T1 sequence (P14735 1-1019): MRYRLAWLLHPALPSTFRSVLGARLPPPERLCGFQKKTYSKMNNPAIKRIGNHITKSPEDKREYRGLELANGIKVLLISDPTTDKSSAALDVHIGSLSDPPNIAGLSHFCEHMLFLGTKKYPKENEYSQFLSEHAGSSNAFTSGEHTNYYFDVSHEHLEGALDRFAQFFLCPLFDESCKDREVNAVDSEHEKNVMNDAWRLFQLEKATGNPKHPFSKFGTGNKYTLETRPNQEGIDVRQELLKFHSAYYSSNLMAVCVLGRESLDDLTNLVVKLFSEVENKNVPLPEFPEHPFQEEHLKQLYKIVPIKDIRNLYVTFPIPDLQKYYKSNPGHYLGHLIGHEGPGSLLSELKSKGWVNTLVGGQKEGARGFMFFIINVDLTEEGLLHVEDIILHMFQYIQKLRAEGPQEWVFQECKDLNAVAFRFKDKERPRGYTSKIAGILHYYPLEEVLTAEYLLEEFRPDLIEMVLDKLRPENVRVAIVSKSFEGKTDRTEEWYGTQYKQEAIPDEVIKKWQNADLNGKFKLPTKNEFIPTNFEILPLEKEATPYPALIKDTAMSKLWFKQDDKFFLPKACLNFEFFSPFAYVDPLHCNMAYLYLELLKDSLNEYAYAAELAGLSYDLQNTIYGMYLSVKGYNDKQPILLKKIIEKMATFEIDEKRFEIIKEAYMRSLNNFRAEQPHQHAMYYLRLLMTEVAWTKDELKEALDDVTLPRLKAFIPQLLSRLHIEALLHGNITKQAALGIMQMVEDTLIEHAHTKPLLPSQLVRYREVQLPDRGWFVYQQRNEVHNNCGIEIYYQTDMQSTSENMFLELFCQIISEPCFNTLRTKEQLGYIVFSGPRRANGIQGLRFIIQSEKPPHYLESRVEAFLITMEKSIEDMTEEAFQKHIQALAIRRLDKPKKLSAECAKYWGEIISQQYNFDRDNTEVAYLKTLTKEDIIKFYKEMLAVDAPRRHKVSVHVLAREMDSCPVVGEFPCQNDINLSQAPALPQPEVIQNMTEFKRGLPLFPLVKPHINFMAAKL
# [2] = system: purified recombinant IDE; conditions: same form of purified recombinant IDE; cited from earlier work
# [3] = system: semi-purified protease purified from rat liver, inferred to be IDE; conditions: protease purified by affinity chromatography from rat liver; cited from earlier work
# [4] = ML345 50 nM, FP-based assay, mean ± SD of 3 independent runs
molecule,measurement,setting,value
O=c1c2cc(F)ccc2sn1-c1cc(S(=O)(=O)N2CCOCC2)ccc1N1CCOCC1 [ML345],KM^app of FBG degradation in presence of inhibitor,[1]; [4],0.392 ± 0.073 µM
same,vmax^app of FBG degradation in presence of inhibitor,[1]; [4],0.827 ± 0.032 nM/s
same,mechanism of inhibition of IDE,"[1]; kinetics analyses, Lineweaver-Burk plots, P12–3A 5 µM or ML345 50 nM",irreversible
insulin,kcat of degradation by IDE,[2],0.025 s⁻¹
bacitracin,inhibition of the purified protease,[3],susceptible to inhibition
